Data as given in patent US8513205B2, “Potent chimeric NRTI-NNRTI bifunctional inhibitors of HIV-1 reverse transcriptase” (Yale University, priority 2008, dated 2013).
Where two headings read alike, the source gives them in different places.

Tests used:
[1] = target: T1, HIV-1 RT (Human immunodeficiency virus type 1 group M subtype B, UniProt P03366); assay: Steady-state competition assay, inhibition of single nucleotide incorporation by HIV-1 RT; format: biochemical
T1 construct: heterodimeric p66/p51 wild-type HIV-1 RT; His tag (histidine tag) (C); made in house
Procedure: dTTP and dGTP were purchased from GE Biosciences. Oligonucleotide primers and template were synthesized and purified using 20% denaturing gel-electrophoresis. […] Labeling and annealing of primer/templates were performed as described previously. Murakami, et al., J. Biol. Chem. 2003, 278, 36403-36409. Expression and Purification of HIV-1 RT.
C-terminal histidine tagged heterodimeric p66/p51 wild-type HIV-1 RT was expressed and purified as described previously (Kerr and Anerson, Biochemistry, 1997, 36, 14064-14070) using a clone generously provided by Stephen Hughes, Paul Boyer, and Andrea Ferris (Fredrick Cancer Research and Development Center, Fredrick, Md.).
DMSO concentrations were kept constant at less than 2%. DMSO alone was added as a no inhibitor control for each set of experiments. Reactions were initiated with the addition of 5 μM dNTP and 10 mM MgCl2 and were quenched after 15 minutes at 37° C. with 0.3 M EDTA. All concentrations represent final concentrations after mixing. Reaction products were subjected to 20% denaturing polyacrylamide gel-electrophoresis and quantitated on a Bio-Rad Molecular Imager FX. Product formation was plotted as a function of inhibitor concentration and fitted to a hyperbola to generate IC50 curves. IC50 values are defined as the concentration of inhibitor that inhibits steady-state single nucleotide incorporation by 50%.

[2] = target: T1, HIV-1 RT; assay: Incorporation assay under single turnover conditions (gel, FIG. 7); format: biochemical; conditions: 30 min, with Mg++; for incorporation into primer opposite template A: D23/D36mer, primer for T incorporation, no dTTP; for incorporation into primer opposite template C: D24/D36mer, primer for G incorporation, no dGTP
Procedure: Controls for both primer/templates include 0 time points (lanes 1 and 4) and incubation for 30 min. with no Mg^++ (lanes 2 and 5).
Incorporation experiments were performed under single turnover conditions; 50 μM d4U-TP-4PEG-TMC and 10 mM MgCl2 were mixed with 250 nM RT (active sites) and 50 nM 5′-labeled primer/template to initiate the reaction. Negative controls were performed under identical conditions without MgCl2. The reaction was allowed to proceed for 30 minutes at 37° C., after which the reaction was quenched with 0.3 M EDTA. Reaction products were subjected to 20% denaturing polyacrylamide gel-electrophoresis and analyzed on a Bio-Rad Molecular Imager FX.

[3] = inhibition of dGTP incorporation opposite template C, D24/D36mer primer-template, read-out: IC50 incorrect base pair
[4] = inhibition of dTTP incorporation opposite template A, D23/D36mer primer-template, read-out: IC50 correct base pair

**Q.** Which results are given for Cc1cc(C#CCOCCOCCOCCOCCOCC#Cc2cn(C3C=CC(CO)O3)c(=O)[nH]c2=O)cc(C)c1Oc1ccnc(Nc2ccc(C#N)cc2)n1 (centres unmarked) [1b, d4U-propynyl-4-PEG-propynyl-TMC-120]?
**A.** fold improvement in potency relative to TMC-4PEG-OH ([1]; correct base pair, D23/D36mer): 3 fold; IC50 [1, 3]: 35 nM; IC50 [1, 4]: 16 nM

**Q.** How did the “fold lower potency relative to parent TMC-derivative” value ([1]; correct base pair, D23/D36mer) turn out when Cc1cc(C#CCOCCOCCOCCOCCO)cc(C)c1Oc1ccnc(Nc2ccc(C#N)cc2)n1 [TMC-4PEG-OH, E, 4-(4-{4-[3-(2-{2-[2-(2-Hydroxy-ethoxy)-ethoxy]-ethoxy}-ethoxy)-prop-1-ynyl]-2,6-dimethyl-phenoxy}-pyrimidin-2-ylamino)-benzonitrile] was run?
**A.** The value was 4 fold.

**Q.** What about the IC50 [1, 3] of the same molecule?
**A.** The IC50 was 29 nM.

**Q.** And the IC50 [1, 4]?
**A.** Its IC50 is 49 nM.

**Q.** Which “fold improvement relative to d4T-TP” value ([1]; correct base pair, D23/D36mer) does the source give for Cc1cc(C#CCOCCOCCOCCOCCOCC#Cc2cn(C3C=CC(COP(=O)(O)OP(=O)(O)OP(=O)(O)O)O3)c(=O)[nH]c2=O)cc(C)c1Oc1ccnc(Nc2ccc(C#N)cc2)n1 (centres unmarked) [1c, d4U-propynyl-4-PEG-propynyl-TMC-120 Triphosphate] here?
**A.** Its value is greater than 500 fold.

**Q.** And the “fold improvement relative to the TMC-derivative” value ([1]; correct base pair, D23/D36mer)?
**A.** The value was 4-5 fold.

**Q.** What about the IC50 [1, 3] of the same molecule?
**A.** Its IC50 is 38 nM.

**Q.** And the IC50 [1, 4]?
**A.** Its IC50 is 3 nM.

**Q.** What about the “incorporation into primer opposite template A” value ([2]; listed as d4U-TP-4PEG-TMC) of the same molecule?
**A.** The value was “formation of an elongated primer chain terminated with the bifunctional monophosphate”.

**Q.** And the “incorporation into primer opposite template A” value ([2]; listed as d4UTP-4PEG-TMC)?
**A.** The value was “incorporation of the bifunctional-TP”.

**Q.** What about the “incorporation into primer opposite template C” value ([2]; listed as d4U-TP-4PEG-TMC) of the same molecule?
**A.** The value was “not the D24/36mer primer-template”.

**Q.** And the “incorporation into primer opposite template C” value ([2]; listed as d4UTP-4PEG-TMC)?
**A.** The value was “no product”.
